Source: patent publication US6358885B1, “Substituted phenylheterocyclic herbicides” (Mississippi State University, priority 1992, dated 2002)

Tests used:
[1] = tested on: cocklebur; experiment: Test B preemergence/postemergence greenhouse plant response rating 0 to 10; assay type: in vivo, Xanthium pensylvanicum; details: 0 to 10 scale
Procedure, shortened: (§1)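 Both application timings were run together: seeds got compound preemergence, and established seedlings (two to eighteen cm) got it postemergence. Non-phytotoxic solvent carried the chemical. Ratings are visual, versus controls, at twelve to sixteen days.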

[2] = tested on: rice; experiment: as above; assay type: in vivo, Oryza sativa; details: 0 to 10 scale
Procedure, shortened: as §1

[3] = tested on: soybean; experiment: as above; assay type: in vivo, Glycine max; details: 0 to 10 scale
Procedure, shortened: as §1

[4] = tested on: wild buckwheat; experiment: as above; assay type: in vivo, Polygonum convolvulus; details: 0 to 10 scale
Procedure, shortened: as §1

[5] = tested on: purple nutsedge; experiment: as above; assay type: in vivo, Cyperus rotundus; details: 0 to 10 scale
Procedure, shortened: as §1

[6] = tested on: bedstraw; experiment: Test C preemergence/postemergence greenhouse plant response rating 0 to 100; assay type: in vivo, Galium aparine; details: POSTEMERGENCE; for Plant response rating, Bedstraw: 0 to 100 scale
Procedure, shortened: (§2)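 Compounds in non-phytotoxic solvent applied preemergence to sandy loam one day after planting, postemergence at the 1–4 leaf stage, or to ~2.5 cm floodwater over silt loam.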

[7] = tested on: blackgrass; experiment: as above; assay type: in vivo, Alopecurus myosuroides; details: POSTEMERGENCE; for Plant response rating, Blackgrass: 0 to 100 scale
Procedure, shortened: as §2

[8] = tested on: chickweed; experiment: as above; assay type: in vivo, Stellaria media; details: POSTEMERGENCE; for Plant response rating, Chickweed: 0 to 100 scale
Procedure, shortened: as §2

[9] = tested on: corn; experiment: as above; assay type: in vivo, Zea mays; details: POSTEMERGENCE; for Plant response rating, Corn: 0 to 100 scale
Procedure, shortened: as §2

[10] = tested on: cotton; experiment: as above; assay type: in vivo, Gossypium hirsutum; details: POSTEMERGENCE; for Plant response rating, Cotton: 0 to 100 scale
Procedure, shortened: as §2

[11] = tested on: giant foxtail; experiment: as above; assay type: in vivo, Setaria faberii; details: POSTEMERGENCE; for Plant response rating, Giant foxtail: 0 to 100 scale
Procedure, shortened: as §2

[12] = tested on: pigweed; experiment: as above; assay type: in vivo, Amaranthusretroflexus; details: POSTEMERGENCE; for Plant response rating Pigweed: 0 to 100 scale
Procedure, shortened: as §2

[13] = tested on: sugar beet; experiment: as above; assay type: in vivo, Beta vulgaris; details: POSTEMERGENCE; for Plant response rating, Sugar beet: 0 to 100 scale
Procedure, shortened: as §2

[14] = tested on: velvetleaf; experiment: as above; assay type: in vivo, Abutilon theophrasti; details: POSTEMERGENCE; for Plant response rating, Velvetleaf: 0 to 100 scale
Procedure, shortened: as §2

[15] = tested on: rice; experiment: Test C flood test plant response rating 0 to 100; assay type: in vivo, Oryza sativa; details: for Plant response rating Rice Japonica: flood test species listed under POSTEMERGENCE, 0 to 100 scale
Procedure, shortened: as §2

[16] = tested on: umbrella sedge; experiment: Test C flood test plant response rating 0 to 100; assay type: in vivo, Cyperus difformis; details: for Plant response rating Umbrella sedge: flood test species listed under POSTEMERGENCE, 0 to 100 scale
Procedure, shortened: as §2

[17] = tested on: duck salad; experiment: Test C flood test plant response rating 0 to 100; assay type: in vivo, Heteranthera limosa; details: for Plant response rating Duck salad: flood test species listed under POSTEMERGENCE, 0 to 100 scale
Procedure, shortened: as §2

[18] = POSTEMERGENCE section, flood test, Rate 4 g/ha
[19] = Rate 16 g/ha, under POSTEMERGENCE head (flood test species)

## COC(=O)c1cc(-c2nn3c(c2Cl)CCCC3)c(F)cc1Cl [Compound 43]
[1]; POSTEMERGENCE, Rate 50 g/ha
  Plant response rating, Cocklebur: 8
[1]; POSTEMERGENCE, Rate 200 g/ha
  Plant response rating, Cocklebur: 10
[1]; PREEMERGENCE, Rate 50 g/ha
  Plant response rating, Cocklebur: 0
[1]; Rate 200 g/ha, PREEMERGENCE
  Plant response rating, Cocklebur: 0
[2]; POSTEMERGENCE, Rate 50 g/ha
  Plant response rating, Rice: 7
[2]; PREEMERGENCE, Rate 50 g/ha
  Plant response rating, Rice: 1
[2]; Rate 200 g/ha, POSTEMERGENCE
  Plant response rating, Rice: 9
[2]; Rate 200 g/ha, PREEMERGENCE
  Plant response rating, Rice: 2
[3]; POSTEMERGENCE, Rate 50 g/ha
  Plant response rating, Soybean: 8
[3]; PREEMERGENCE, Rate 50 g/ha
  Plant response rating, Soybean: 4
[3]; Rate 200 g/ha, POSTEMERGENCE
  Plant response rating, Soybean: 9
[3]; Rate 200 g/ha, PREEMERGENCE
  Plant response rating, Soybean: 3
[4]; POSTEMERGENCE, Rate 50 g/ha
  Plant response rating, Wild buckwheat: 10
[4]; PREEMERGENCE, Rate 50 g/ha
  Plant response rating, Wild buckwheat: 8
[4]; Rate 200 g/ha, POSTEMERGENCE
  Plant response rating, Wild buckwheat: 10
[4]; Rate 200 g/ha, PREEMERGENCE
  Plant response rating, Wild buckwheat: 10
[5]; POSTEMERGENCE, Rate 50 g/ha
  Plant response rating, Nutsedge: 3
[5]; PREEMERGENCE, Rate 50 g/ha
  Plant response rating, Nutsedge: 0
[5]; Rate 200 g/ha, POSTEMERGENCE
  Plant response rating, Nutsedge: 3
[5]; Rate 200 g/ha, PREEMERGENCE
  Plant response rating, Nutsedge: 0
[6]; 62 g/ha
  Plant response rating, Bedstraw: 70
[6]; 250 g/ha
  Plant response rating, Bedstraw: 100
[6]; Rate 4 g/ha
  Plant response rating (0 to 100), Bedstraw: 40
[6]; Rate 16 g/ha
  Plant response rating (0 to 100), Bedstraw: 60
[7]; 62 g/ha
  Plant response rating, Blackgrass: 60
[7]; 250 g/ha
  Plant response rating, Blackgrass: 90
[7]; Rate 4 g/ha
  Plant response rating (0 to 100), Blackgrass: 20
[7]; Rate 16 g/ha
  Plant response rating (0 to 100), Blackgrass: 30
[8]; 62 g/ha
  Plant response rating, Chickweed: 90
[8]; 250 g/ha
  Plant response rating, Chickweed: 100
[8]; Rate 4 g/ha
  Plant response rating (0 to 100), Chickweed: 60
[8]; Rate 16 g/ha
  Plant response rating (0 to 100), Chickweed: 80
[9]; 62 g/ha
  Plant response rating, Corn: 90
[9]; 250 g/ha
  Plant response rating, Corn: 90
[9]; Rate 4 g/ha
  Plant response rating (0 to 100), Corn: 20
[9]; Rate 16 g/ha
  Plant response rating (0 to 100), Corn: 50
[10]; 62 g/ha
  Plant response rating, Cotton: 100
[10]; 250 g/ha
  Plant response rating, Cotton: 100
[10]; Rate 4 g/ha
  Plant response rating (0 to 100), Cotton: 90
[10]; Rate 16 g/ha
  Plant response rating (0 to 100), Cotton: 90
[11]; 62 g/ha
  Plant response rating, Giant foxtail: 50
[11]; 250 g/ha
  Plant response rating, Giant foxtail: 85
[11]; Rate 4 g/ha
  Plant response rating (0 to 100), Giant foxtail: 40
[11]; Rate 16 g/ha
  Plant response rating (0 to 100), Giant foxtail: 50
[12]; 62 g/ha
  Plant response rating Pigweed: 100
[12]; 250 g/ha
  Plant response rating Pigweed: 100
[12]; Rate 4 g/ha
  Plant response rating (0 to 100), Pigweed: 90
[12]; Rate 16 g/ha
  Plant response rating (0 to 100), Pigweed: 100
[13]; 62 g/ha
  Plant response rating, Sugar beet: 60
[13]; 250 g/ha
  Plant response rating, Sugar beet: 80
[13]; Rate 4 g/ha
  Plant response rating (0 to 100), Sugar beet: 30
[13]; Rate 16 g/ha
  Plant response rating (0 to 100), Sugar beet: 40
[14]; 62 g/ha
  Plant response rating, Velvetleaf: 100
[14]; 250 g/ha
  Plant response rating, Velvetleaf: 100
[14]; Rate 4 g/ha
  Plant response rating (0 to 100), Velvetleaf: 50
[14]; Rate 16 g/ha
  Plant response rating (0 to 100), Velvetleaf: 100
[15]; [18]
  Plant response rating (0 to 100), Rice Japonica: 35
[15]; [19]
  Plant response rating (0 to 100), Rice Japonica: 60
[15]; 62 g/ha
  Plant response rating Rice Japonica: 70
[15]; 250 g/ha
  Plant response rating Rice Japonica: 75
[16]; [18]
  Plant response rating (0 to 100), Umbrella sedge: 0
[16]; [19]
  Plant response rating (0 to 100), Umbrella sedge: 0
[16]; 62 g/ha
  Plant response rating Umbrella sedge: 60
[16]; 250 g/ha
  Plant response rating Umbrella sedge: 70
[17]; [18]
  Plant response rating (0 to 100), Duck salad: 0
[17]; [19]
  Plant response rating (0 to 100), Duck salad: 0
[17]; 62 g/ha
  Plant response rating Duck salad: 25
[17]; 250 g/ha
  Plant response rating Duck salad: 45
